According to publication PMC6930555, “Design, Synthesis, and Structural Characterization of Novel Diazaphenothiazines with 1,2,3-Triazole Substituents as Promising Antiproliferative Agents” (Molecules, 2019):

Legend:
glioblastoma SNB-19 = assay: WST-1 cell proliferation assay, SNB-19; type: cell-based, human; settings: Homo sapiens; SNB-19, WST-1, 72 h; read-out: Anticancer Activity IC50 SNB-19
Method: (§1) Encouraged by our previous promising results in the field of antiproliferative activity of dipyridothiazines as well as by the good anticancer activity of the 1,2,3-triazoles, we decided to combine the biological potentials of dipyridothiazines and triazole moieties, hoping to obtain compounds with better activity. The antiproliferative activity of all 20 new 10-substituted 1,2,3-triazole derivatives of dipyridothiazines was tested in vitro against cancer cell lines: glioblastoma SNB-19, colorectal carcinoma Caco-2, lung cancer A549, and breast cancer MDA-MB231 using the WST-1 assay. Normal human fibroblasts NHDF were used as a control.
(§2) All dipyridothiazines with 1,2,3-triazole substituents (1–4)b–f were evaluated for their anticancer activity using four cultured cell lines: SNB-19 (human glioblastoma, DSMZ—German Collection of Microorganisms and Cell Cultures, Braunschweig, Germany), Caco-2 (human colon adenocarcinoma, DSMZ—German Collection of Microorganisms and Cell Cultures, Braunschweig, Germany), A549 (human lung carcinoma, ATCC, Manassas, VA, USA) and MDA-MB231 (human breast adenocarcinoma, ATCC, Manassas, VA, USA), and NHDF (human dermal fibroblast cell line, ATCC, Manassas, VA, USA. The cultured cells were kept at 37 °C and 5% CO2. The cells were seeded (1 × 10^4 cells/well/100 µL DMEM supplemented with 10% FCS and streptomycin and penicillin) using 96-well plates (Corning). The cells were counted in a hemocytometer (Burker’s chamber) using a phase contrast Olympus IX50 microscope equipped with Sony SSC-DC58 AP camera and Olympus DP10 digital camera.
(§3) Antiproliferative effect of the obtained compounds on the cancer cells was determined using the cell proliferation reagent WST-1 assay (Roche Diagnostics, Mannheim, Germany). This assay is based on the viable cell’s ability to cleave the bright red-colored tetrazolium salt (2-(4-iodophenyl)-3-(4-nitrophenyl)-5-(2,4-disulfophenyl)-2H-tetrazolium, monosodium salt) to dark red soluble formazan by cellular enzymes. An increase in the amount of formazan dye formed correlates to the number of metabolically active cells in the culture. The formazan dye produced by metabolically active cells is quantified by a scanning ELISA reader by measuring the absorbance of the dye solution at appropriate wavelengths. The examined cells were exposed to the tested compounds for 72 h at various concentrations between 0.1 μg/mL and 100 μg/mL (prepared initially at concentration of 1 mg/mL in DMSO). The cells were incubated with WST-1 (10 μL) for 1 h and the absorbance of the samples against a background control was measured at 450 nm using a microplate reader with a reference wavelength at 600 nm. The results are expressed as means of at least two independent experiments performed in triplicate.

[1] = test system: colorectal carcinoma Caco-2; assay: WST-1 cell proliferation assay, Caco-2; type: cell-based; settings: Homo sapiens; Caco-2, WST-1, 72 h; read-out: Anticancer Activity IC50 Caco-2
Method: (§4) The antiproliferative activity of all 20 new 10-substituted 1,2,3-triazole derivatives of dipyridothiazines was tested in vitro against cancer cell lines: glioblastoma SNB-19, colorectal carcinoma Caco-2, lung cancer A549, and breast cancer MDA-MB231 using the WST-1 assay. Normal human fibroblasts NHDF were used as a control.
as §2, §3

lung cancer A549 = assay: WST-1 cell proliferation assay, A549; type: cell-based, human; settings: Homo sapiens; A549, WST-1, 72 h; read-out: Anticancer Activity IC50 A549
Method: as §1, §2, §3

breast cancer MDA-MB231 = assay: WST-1 cell proliferation assay, MDA-MB231; type: cell-based, human; settings: Homo sapiens, MDA-MB-231; MDA-MB231, WST-1, 72 h; read-out: Anticancer Activity IC50 MDA-MB231
Method: as §1, §2, §3

[2] = test system: normal human fibroblasts NHDF; assay: WST-1 cytotoxicity assay, normal fibroblasts NHDF; type: cell-based; settings: for IC50: normal human fibroblasts NHDF, WST-1, 72 h
Method: as §1, §2, §3

[3] = test system: SNB-19, Caco-2, A549 and MDA-MB231 cancer cell lines; assay: WST-1 assay, summary over the cancer cell line panel; type: cell-based, human
Method: as §4, §2, §3

[4] = test system: H3, TP53, CDKN1A, BCL-2 and BAX genes in glioblastoma SNB-19; assay: RT-qPCR gene expression, SNB-19; type: cell-based, human; settings: SNB-19, 0.5 µg/mL, 24 h
Method: (§5) In this method the gene transcriptional activities of proliferation marker (H3), cell cycle regulator (TP53 and CDKNIA), and intracellular apoptosis pathway (BCL-2 and BAX) were analyzed. It has been known that the growth, metabolism, and eventual death of the cells in the body are controlled by hundreds of genes working together. The gene encoding histone H3 plays a crucial role in regulation of the expression of the genetic information included in the DNA.
(§6) Genes trancriptional activity (H3, TP53, CDKN1A, BCL-2, and BAX) was evaluated by real time RT-qPCR with OPTICON TM DNA Engine (MJ Research, Watertown, MA, USA) and QuantTect® SYBR® Green RT-PCR Kit (Quiagen, Valencia, CA). Cells were exposed to compound 4 at a 0.5 µg/mL concentration for 24 h. The RNA extraction was made by using Quick-RNA™ Kit MiniPrep (ZYMO […]). Total RNA integrity was analysed in 1.2% agarose electrophoresis with added ethidium bromide. The quantity and purity of extracted total RNA were determined by using spectrophotometric analysis with HP845 (Hewlett Packard, Waldbronn, Germany) spectrophotometer. The statistical analysis was performed using the Statistica 8.0 software. All values were expressed as means ± SE.

[5] = test system: H3, TP53, CDKN1A, BCL-2 and BAX genes in colorectal carcinoma Caco-2; assay: RT-qPCR gene expression, Caco-2; type: cell-based, human
Method: as §5, §6

[6] = test system: H3, TP53, CDKN1A, BCL-2 and BAX genes in lung cancer A549; assay: RT-qPCR gene expression, A549; type: cell-based, human; settings: A549, 0.5 µg/mL, 24 h
Method: as §5, §6

[7] = test system: H3, TP53, CDKN1A, BCL-2 and BAX genes in breast cancer MDA-MB231; assay: RT-qPCR gene expression, MDA-MB231; type: cell-based, human
Method: as §5, §6

[8] = test system: H3, TP53, CDKN1A, BCL-2 and BAX genes in SNB-19, Caco-2, A549 and MDA-MB231; assay: RT-qPCR gene expression, summary over the cancer cell lines; type: cell-based, human
Method: as §5, §6

Clc1ccc(Cn2cc(CN3c4cccnc4Sc4cccnc43)nn2)cc1 [1d, 10-[(1-(4-Chlorobenzyl)-1H-1,2,3-triazol-4-yl)methyl]-1,6-diazaphenothiazine]
IC50 (glioblastoma SNB-19): 4660 nM
IC50 [1]: 250 nM
IC50 (lung cancer A549): 250 nM
IC50 (breast cancer MDA-MB231): 510 nM
cytotoxicity against normal human fibroblasts (in words) ([2]; NHDF): relatively low cytotoxicity
IC50 [2]: > 100000 nM
IC50 ([3]; Homo sapiens, span over SNB-19, Caco-2, A549, MDA-MB231, read-out: IC50 across all investigated cancer cell lines): 250 to 4660 nM
BAX number of mRNA copies/μg total RNA [4]: 220+/−18 mRNA Copies/μg Total RNA
BCL-2 number of mRNA copies/μg total RNA [4]: 17497+/−4607 mRNA Copies/μg Total RNA
CDKN1A number of mRNA copies/μg total RNA [4]: 308+/−51 mRNA Copies/μg Total RNA
H3 number of mRNA copies/μg total RNA [4]: 52+/−11 mRNA Copies/μg Total RNA
TP53 number of mRNA copies/μg total RNA [4]: 128+/−24 mRNA Copies/μg Total RNA
effect on expression of BCL-2 (in words) ([5]; Caco-2): slight increase
BAX number of mRNA copies/μg total RNA ([5]; Caco-2, 0.5 µg/mL, 24 h): 969+/−264 mRNA Copies/μg Total RNA
BCL-2/BAX gene expression ratio ([5]; Caco-2, 0.5 µg/mL, 24 h): 743
BCL-2 number of mRNA copies/μg total RNA ([5]; Caco-2, 0.5 µg/mL, 24 h): 723708+/−217134 mRNA Copies/μg Total RNA
CDKN1A number of mRNA copies/μg total RNA ([5]; Caco-2, 0.5 µg/mL, 24 h): 260+/−21 mRNA Copies/μg Total RNA
H3 number of mRNA copies/μg total RNA ([5]; Caco-2, 0.5 µg/mL, 24 h): 45+/−3 mRNA Copies/μg Total RNA
TP53 number of mRNA copies/μg total RNA ([5]; Caco-2, 0.5 µg/mL, 24 h): 193+/−16 mRNA Copies/μg Total RNA
BAX number of mRNA copies/μg total RNA [6]: 835+/−231 mRNA Copies/μg Total RNA
BCL-2/BAX gene expression ratio [6]: 18
BCL-2 number of mRNA copies/μg total RNA [6]: 15631+/−2296 mRNA Copies/μg Total RNA
CDKN1A number of mRNA copies/μg total RNA [6]: 969+/−137 mRNA Copies/μg Total RNA
H3 number of mRNA copies/μg total RNA [6]: 18+/−5 mRNA Copies/μg Total RNA
TP53 number of mRNA copies/μg total RNA [6]: 54+/−19 mRNA Copies/μg Total RNA
apoptosis pathway from gene expression ratio BCL-2/BAX (in words) ([7]; MDA-MB231): activation of the mitochondrial apoptosis
BAX number of mRNA copies/μg total RNA ([7]; MDA-MB231, 0.5 µg/mL, 24 h): 221+/−16 mRNA Copies/μg Total RNA
BCL-2 number of mRNA copies/μg total RNA ([7]; MDA-MB231, 0.5 µg/mL, 24 h): 16495+/−4607 mRNA Copies/μg Total RNA
CDKN1A number of mRNA copies/μg total RNA ([7]; MDA-MB231, 0.5 µg/mL, 24 h): 577+/−308 mRNA Copies/μg Total RNA
H3 number of mRNA copies/μg total RNA ([7]; MDA-MB231, 0.5 µg/mL, 24 h): 8+/−6 mRNA Copies/μg Total RNA
TP53 number of mRNA copies/μg total RNA ([7]; MDA-MB231, 0.5 µg/mL, 24 h): 46+/−20 mRNA Copies/μg Total RNA
effect on expression of BCL-2 (in words) ([8]; SNB-19, A549 and MDA-MB231): remarkably reduced
effect on CDKN1A copies (in words) ([8]; all cancer cells): strong decline
effect on mRNA copy number of the histone H3 gene (in words) ([8]; all cancer lines): strongly changed
effect on expression of BAX (in words) ([8]; all investigated cancer cell lines): decrease
effect on amount of mRNA copies of TP53 (in words) ([8]; all investigated cancer lines): significantly interfered

c1ccc(SCn2cc(CN3c4ccncc4Sc4ccncc43)nn2)cc1 [3f, 10-[(1-Phenylthiomethyl-1H-1,2,3-triazolo-4-ylo)methyl]-2,7-diazaphenothiazine]
IC50 (glioblastoma SNB-19): 32600 nM
IC50 [1]: 14500 nM
IC50 (lung cancer A549): 650 nM
IC50 (breast cancer MDA-MB231): 640 nM
IC50 [2]: 52900 nM
selectivity among cancer cell lines (in words) ([3]; four cancer cell lines): acted selectively towards A549 and MDA-MB231 cell lines
